In EP2974714B1, “USE OF DERIVATIVES WITH C-O-P BONDS IN PATIENTS WITH RENAL FAILURE” (LABORATORIS SANIFIT, S.L., priority 2013, dated 2014):

What was measured:
[1] = test system: vit D-induced cardiovascular calcification in rats; assay: Inhibition of vit D-induced (300,000 IU/kg x 3) cardiovascular calcification by s.c. IP6; type: in vivo, male SD rats; details: s.c.
Method: Experimental: male SD rats were divided into 9 groups. Two of said groups (sham and control groups) received s.c. saline 2 ml/kg; 6 groups received s.c. […] One group was treated with a s.c. Alzet pump loaded with 200 mg/ml IP6. Calcification was induced by oral administration of 300,000 IU/kg vitamin D (2 ml/kg) for 3 days starting on treatment day 3. […] The calcium content in heart, aorta and kidneys was determined after treatment for 7 days.

[2] = HAP crystallisation induction period (synergy with other treatments); type: physicochemical; details: drug effect simulated by modifying calcium and phosphate concentrations; control 8 minutes
Method: Experimental: hydroxyapatite (HAP) was crystallised by mixing appropriate concentrations of calcium and phosphate at pH 7.4. The effect of cinacalcet and sevelamer was simulated by suitably modifying the calcium and phosphate concentrations. The induction period (time required for HAP to begin to crystallise) was recorded as the analytical signal.

| Structure (SMILES) | dose causing the same effect as 10 mg/kg IP6 [1] [mg/kg] | efficacy against calcification (in words) ([1]; at higher doses than IP6) | induction time (without IP6) [2] [min] |
| --- | --- | --- | --- |
| O=P([O-])([O-])OP(=O)([O-])[O-].[Na+].[Na+].[Na+].[Na+] [pyrophosphate, sodium pyrophosphate, reference compound] | 28 | good efficacy |  |
| C[C@@H](NCCCc1cccc(C(F)(F)F)c1)c1cccc2ccccc12 [cinacalcet, reference compound] |  |  | 14 |
